Data on 26 compounds can be found in patent publication US6979686B1, “Substituted pyrazoles as p38 kinase inhibitors” (Pharmacia Corporation, priority 2001, dated 2005).

T1 sequence (Q16539 whole entry): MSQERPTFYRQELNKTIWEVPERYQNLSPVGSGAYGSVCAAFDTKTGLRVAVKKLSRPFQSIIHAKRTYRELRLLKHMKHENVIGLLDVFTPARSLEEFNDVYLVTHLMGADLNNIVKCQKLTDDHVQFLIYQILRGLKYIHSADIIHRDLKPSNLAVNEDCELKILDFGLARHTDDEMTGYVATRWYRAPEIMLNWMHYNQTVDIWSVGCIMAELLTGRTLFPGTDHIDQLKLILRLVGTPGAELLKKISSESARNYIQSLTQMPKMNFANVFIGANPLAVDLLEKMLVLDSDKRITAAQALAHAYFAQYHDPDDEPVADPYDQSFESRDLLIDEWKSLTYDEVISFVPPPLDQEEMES

The experiment concerns the target T1, human p38 kinase alpha (Homo sapiens, UniProt Q16539).
T1 construct: GST (N, cleaved yes); made in house; host or cells: E. coli DH10B
The experiment is described as follows: p38 kinase in vitro assay, phosphorylation of biotinylated PHAS-I with 32P-ATP. Type of experiment: biochemical. As to conditions: in vitro P38-alpha kinase inhibition; read-out: P38 alpha kinase IC50.
As for `CCN(CC)C(=O)NC(Cc1ccccc1)c1[nH]nc(-c2ccc(F)cc2)c1-c1ccncc1` (centres unmarked) [Example B-0787], the IC50 was found to be 1500 nM. With `CCNC(=O)NC(Cc1ccccc1)c1[nH]nc(-c2ccc(F)cc2)c1-c1ccncc1` (centres unmarked) [Example B-0788] the figure was 1200 nM; with `COc1ccc(NC(=O)NC(Cc2ccccc2)c2[nH]nc(-c3ccc(F)cc3)c2-c2ccncc2)c(OC)c1` (centres unmarked) [Example B-0789], 33000 nM. Regarding `O=C(Cc1cccs1)NC(Cc1ccccc1)c1[nH]nc(-c2ccc(F)cc2)c1-c1ccncc1` (centres unmarked) [Example B-0790], the IC50 is 1000 nM. As for `CCCOC(=O)NC(Cc1ccccc1)c1[nH]nc(-c2ccc(F)cc2)c1-c1ccncc1` (centres unmarked) [Example B-0792], the IC50 is 1100 nM.

On to `CCOC(=O)NC(Cc1ccccc1)c1[nH]nc(-c2ccc(F)cc2)c1-c1ccncc1` (centres unmarked) [Example B-0793], for which the IC50 was 300 nM. Take `CC(=O)OCC(=O)NC(Cc1ccccc1)c1[nH]nc(-c2ccc(F)cc2)c1-c1ccncc1` (centres unmarked) [Example B-0797]: the IC50 was found to be 1040 nM. Next, `O=C(NC(Cc1ccccc1)c1[nH]nc(-c2ccc(F)cc2)c1-c1ccncc1)c1ccccc1I` (centres unmarked) [Example B-0798]: 1730 nM; `CC(=O)NC(Cc1ccccc1)c1[nH]nc(-c2ccc(F)cc2)c1-c1ccncc1` (centres unmarked) [Example B-0803]: 57 nM. With `O=C(NC(Cc1ccccc1)c1[nH]nc(-c2ccc(F)cc2)c1-c1ccncc1)C1CCC1` (centres unmarked) [Example B-0804] the figure was 300 nM.

For `O=C(NC(Cc1ccccc1)c1[nH]nc(-c2ccc(F)cc2)c1-c1ccncc1)c1ccc(I)cc1` (centres unmarked) [Example B-0807], the IC50 stood at 10800 nM. Consider `COc1cccc(CC(=O)NC(Cc2ccccc2)c2[nH]nc(-c3ccc(F)cc3)c2-c2ccncc2)c1` (centres unmarked) [Example B-0817], for which the IC50 amounted to 3070 nM.

With `O=C(NC(Cc1ccccc1)c1[nH]nc(-c2ccc(F)cc2)c1-c1ccncc1)c1cccnc1` (centres unmarked) [Example B-0821], the 50% inhibitory concentration (IC50) was 1440 nM. As for `O=C(NC(Cc1ccccc1)c1[nH]nc(-c2ccc(F)cc2)c1-c1ccncc1)c1ccncc1` (centres unmarked) [Example B-0822], the IC50 came to 1330 nM. With `COc1cccc(C(=O)NC(Cc2ccccc2)c2[nH]nc(-c3ccc(F)cc3)c2-c2ccncc2)c1` (centres unmarked) [Example B-0824] the figure was 3410 nM; with `CC(C)COC(=O)NC(Cc1ccccc1)c1[nH]nc(-c2ccc(F)cc2)c1-c1ccncc1` (centres unmarked) [Example B-0826], 1740 nM; with `Cc1ccc(S(=O)(=O)NC(Cc2ccccc2)C(=O)NC(Cc2ccccc2)c2[nH]nc(-c3ccc(F)cc3)c2-c2ccncc2)cc1` (centres unmarked) [Example B-0827], 15600 nM. With `O=C(NC(Cc1ccccc1)c1[nH]nc(-c2ccc(F)cc2)c1-c1ccncc1)c1cnc2ccccc2n1` (centres unmarked) [Example B-0828], the concentration for half-maximal inhibition (IC50) was 7900 nM. Next, `CC(=O)OCC(=O)NC(Cc1ccccc1)c1[nH]nc(-c2ccc(F)cc2)c1-c1ccncc1` (centres unmarked) [Example B-0829]: 610 nM. For `O=C(NC(Cc1ccccc1)c1[nH]nc(-c2ccc(F)cc2)c1-c1ccncc1)c1ccc(F)cc1` (centres unmarked) [Example B-0832], the IC50 came out at 1490 nM. For the compound `C=CCOC(=O)NC(Cc1ccccc1)c1[nH]nc(-c2ccc(F)cc2)c1-c1ccncc1` (centres unmarked) [Example B-0833], the IC50 turned out to be 950 nM.

Take `CC(=O)OC(C)(C)C(=O)NC(Cc1ccccc1)c1[nH]nc(-c2ccc(F)cc2)c1-c1ccncc1` (centres unmarked) [Example B-0834]: the IC50 came out at 1250 nM. As for `O=C(NC(Cc1ccccc1)c1[nH]nc(-c2ccc(F)cc2)c1-c1ccncc1)C1CCC1` (centres unmarked) [Example B-0836], the IC50 turned out to be 1240 nM. In the case of `O=C(NC(Cc1ccccc1)c1[nH]nc(-c2ccc(F)cc2)c1-c1ccncc1)c1cccc(Br)c1` (centres unmarked) [Example B-0838], the half-maximal inhibitory concentration (IC50) was found to be 3100 nM.

`O=C(NC(Cc1ccccc1)c1[nH]nc(-c2ccc(F)cc2)c1-c1ccncc1)c1ccc(I)cc1` (centres unmarked) [Example B-0839]: the IC50 amounted to 4300 nM. Take `O=C(NC(Cc1ccccc1)c1[nH]nc(-c2ccc(F)cc2)c1-c1ccncc1)c1ccno1` (centres unmarked) [Example B-0840]: the IC50 worked out at 630 nM.
